{
  "source": "patent EP2880993A1",
  "about": "“Method of achieving memory and learning improvement by the administration of sialic acid” (ABBOTT LABORATORIES, priority 2013, dated 2015)",
  "key": {"rats [1]": {"test_system": "rats", "test": "Y-maze testing, Example 2 (Acquisition Trial and Retention Trial)", "assay_type": "in vivo, Sprague-Dawley rat", "details": "14 months old", "description": "A Y-maze test was performed when the rats were 14 months old, which corresponds to 50-55 years old in humans. Eight rats in each group were tested. The Y-maze testing was performed in two phases: an Acquisition Trial and a Retention Trial. Rats in each group were evaluated in the Y-maze.\nDuring the Acquisition Trial, one of the three arms of the Y-maze was blocked, and animals were allowed to explore the other two arms for 15 minutes. The Retention Trial took place 4 hours after the Acquisition Trial. During the Retention Trial, all three arms were open and animals were allowed to explore for 5 minutes. The amount of time each animal spent at the start of the Y-maze and each arm was evaluated."}, "[2]": {"test_system": "hippocampal CA3-CAl areas", "test": "Long-term potentiation (LTP) testing in vivo, Example 2", "set-up": "species or system Sprague-Dawley rat", "details": "11 months old, FIG. 4; for fEPSP values / LTP response evoked after the HFS train, in words: compared with Control group (and NeuAc group)", "description": "In order to establish the role of sialylated oligosaccharides in cognition, rat pups were supplemented with 6'-sialyllactose (6'-SL) from postnatal day 3 (PND3) and their learning and memory abilities were analyzed later in life. Rat performance in a classical spatial cognitive task (Y-maze), Novel object Recognition, protocol of spatial learning in the novel Intellicage® system, and Morris water maze were carried out once the animals reached 12 and 14 months of age. LTP response in hippocampus was also evaluated in vivo once the animals reached 11 months of age. The Y-maze, Object Recognition and the IntelliCage® allow the determination of spatial orientation and memory capabilities of experimental animals. The same female rats performed all the tests.\nThe pups from the second cohort were divided into three groups and given the following designations: the 6'-SL supplemented group, the NeuAc supplemented group and the control group. Initially, each group comprised 20 male pups. Due to premature deaths there were a total of 14 pups in the 6'-SL supplemented group at the end of the lactation. The 6'-SL supplemented group received 6'-SL supplementation (8 doses/day) in order to reach the same sialic acid levels as normally reared pups. The amount of 6'-SL given to the 6'-SL supplemented group was selected to follow the change in concentration of sialic acid in rat milk, ranging from 1.5 g/Kg body weight on day 3 to 0.5 g/Kg body weight at weaning. The maximum amount of sialic acid given to a pup was a maximum of 2 mg/Kg on day 8.\nThere were a total of 16 male pups in the NeuAc supplemented group at the end of lactation. The NeuAc supplemented group received NeuAc supplementation in order to reach the same sialic acid levels as normally reared pups. The amount of NeuAc given to the NeuAc supplemented group was selected to follow the change in concentration of sialic acid in rat milk, ranging from 1.5 g/Kg body weight on day 3 to 0.5 g/Kg body weight at weaning. The maximum amount of sialic acid given to any pup was 2 mg/Kg on day 8,\nLong-term potentiation (LTP) measurements were performed in each of the three groups, i.e., the 6'-SL Supplemented Group, the NeuAc -Supplemented Group and the Control Group. The testing was done while the animals were alive and 11 months old, which is about age 40 in human years. Experiments were done in order to determine the functionality of hippocampus in vivo. […]\nTo evoke LTP, the following high frequency stimulation (HFS) protocol was used: each animal was subjected to five 200 Hz, 100 ms trains of pulses at a rate of l/s. […] After the HFS protocol, fEPSPs were recorded again for 30 minutes. […]\nThe HFS train is indicated by the downward arrow. […] The baseline was recorded at 15, 10, and 5 minutes before HFS."}, "rats [3]": {"test_system": "rats", "test": "Intellicage testing, Example 2", "assay_type": "in vivo, Sprague-Dawley rat", "details": "14-15 months old, compared with Control group", "description": "IntelliCage® (NewBehavior AG) is a computer-based, fully automated testing apparatus used to analyze spontaneous and learned behavior. Eight rats in each group were tested. The rats were 14-15 months old, which corresponds to 55-60 years old for humans, when these tests were performed. Animals remain in the cage during several days and behavior is recorded during the entire testing period. Different paradigms can be tested by restricting water access to specific places and time periods. Each animal is assigned a corner where it can access water. Access to the water is only allowed during discrete time periods. Thus, each animal must learn when access to water bottles is allowed and which corner, out of four, has been assigned to it. Access to the corner is controlled by a door that opens only when the assigned rat enters its nose in a hole. […] Access to non-assigned corners remain blocked except during two 90 min periods during the night."}, "rats [4]": {"test_system": "rats", "test": "Novel Object Recognition testing, Example 2", "assay_type": "in vivo, Sprague-Dawley rat", "details": "13 months old; retention test one day after acquisition phase; FIG. 5", "description": "Perirhinal cortex and hippocampus are involved in the novel object recognition task. Novel Object Recognition Testing was performed when the rats were 13 months old, which corresponds to 45-50 years old for humans. Eight animals were tested.\nDuring a habituation phase of the test, the rats were allowed to explore an \"arena\" for 20 minutes per day for 3 consecutive days. The arena was a black, open plastic chamber. Next, an acquisition phase took place wherein the animals interfaced with two different objects. These object are defined as \"familiar.\" The rats were allowed to the arena while the familiar objects were present for 10 minutes. One day after the acquisition phase, a retention test was performed on the rats, wherein one of the familiar objects was replaced by a new object. The new object is defined as \"novel.\" The rats were allowed to explore the arena for 5 minutes during the retention test. In theory, animals that remember familiar objects will spend more time exploring the novel object than the familiar one."}},
  "note": "Entries after “also recorded” stand apart in the source; their conditions may differ.",
  "data": [
    {"smiles": "CC(=O)NC1C(O)CC(OCC2OC(OC3C(CO)OC(O)C(O)C3O)C(O)C(O)C2O)(C(=O)O)OC1C(O)C(O)CO", "note": "(centres unmarked) [6'-SL, 6'-sialyllactose]", "values": [
      {"measurement": "latency to blocked arm", "setting": "rats [1]; Retention Trial 4 hours after Acquisition Trial, compared with Control group, FIG. 6", "value": "lower values of latency to the blocked arm in comparison with Control group"},
      {"measurement": "percentage of animals visiting the previously blocked arm first", "setting": "rats [1]; Retention Trial, compared with control animals, FIG. 7", "value": "significantly higher than that of the control animals"},
      {"measurement": "persistence of LTP induction", "setting": "[2]; after the second day, followed for up to 4 days", "value": "remaining; also recorded: remained at elevated levels even 4 days post stimulus"},
      {"measurement": "fEPSP values / LTP response evoked after the HFS train, in words", "setting": "[2]", "value": "significantly larger"},
      {"measurement": "fEPSP values / LTP response evoked after the HFS train, in words", "setting": "[2]; listed as 6'SL", "value": "strongest response; also recorded: significantly higher LTP response levels than those of the control group"},
      {"measurement": "speed of learning", "setting": "rats [3]", "value": "seemed to learn faster than the Control group"},
      {"measurement": "visits to the correct corner versus the incorrect corner (performance)", "setting": "rats [3]; FIG. 8", "value": "performed better compared to the Control group"},
      {"measurement": "time spent exploring the novel object versus the familiar object", "setting": "rats [4]", "value": "significantly more time visiting the novel object than the familiar one; also recorded: distinguish better between the familiar and novel object"}
    ]}
  ]
}
